# Assay results from US20230295087A1, “AGONISTS OF ROR GAMMAt” (BRISTOL-MYERS SQUIBB COMPANY, priority 2019, published 2023).
# Biological target: T1, human RORgT (Homo sapiens, UniProt P51449)
# T1 construct: expressed in transfected cells
# T1 sequence (P51449 267-516): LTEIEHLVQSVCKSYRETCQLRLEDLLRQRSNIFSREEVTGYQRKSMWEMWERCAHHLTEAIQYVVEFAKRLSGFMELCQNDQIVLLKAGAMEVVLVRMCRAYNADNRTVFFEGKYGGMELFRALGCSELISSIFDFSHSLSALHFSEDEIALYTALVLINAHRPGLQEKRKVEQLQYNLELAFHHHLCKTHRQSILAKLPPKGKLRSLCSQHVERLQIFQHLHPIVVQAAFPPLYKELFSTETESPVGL
# Assay: RORgT Gal4 Luciferase Reporter Gene Assay
# Type: cell-based
# Details: engineered Jurkat cells overexpressing RORgT (LBD or full length) fused with Gal4 Luc reporter; 18 hours at 37° C.; luminescence
# Procedure, shortened: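 Jurkat cells expressing Gal4 Luc with either RORgT LBD (aa267-516) or full-length human RORgT, 10,000 cells/well, treated with compound (40 µM to 0.67 nM final, 3-fold dilutions) for 18 h at 37° C. Steady-Glo luminescence read; inhibition of constitutive activity as % signal-window reduction relative to a control compound.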
row,SMILES,EC50
1,"O=C(C1CCS(=O)(=O)CC1)N1CC[C@@]2(S(=O)(=O)c3ccc(F)cc3)c3ccc(Sc4c(Cl)cccc4Cl)cc3CC[C@@H]12 [Example 118, 4-[(3aR,9bR)-7-[(2,6-dichlorophenyl)sulfanyl]-9b-(4-fluorobenzenesulfonyl)-1H,2H,3H,3aH,4H,5H,9bH-benzo[e]indole-3-carbonyl]-1λ^6-thiane-1,1-dione]",1.3 nM
2,"O=C(C1CCS(=O)(=O)C1)N1CC[C@@]2(S(=O)(=O)c3ccccc3)c3ccc(OCc4c(Cl)cccc4Cl)cc3CC[C@@H]12 (stereo partly drawn) [Example 59, 3-[(3aR,9bR)-9b-(benzenesulfonyl)-7-[(2,6-dichlorophenyl)methoxy]-1H,2H,3H,3aH,4H5H,9bH-benzo[e]indole-3-carbonyl]-1λ^6-thiolane-1,1-dione]",16 nM
3,"CN1CCC(C(=O)N2CC[C@@]3(S(=O)(=O)c4ccc(F)cc4)c4ccc(OCc5c(Cl)cccc5Cl)cc4CC[C@@H]23)CC1 [Example 171, 4-[(3aR,9bR)-7-[(2,6-dichlorophenyl)methoxy]-9b-(4-fluorobenzenesulfonyl)-1H,2H,3H,3aH,4H,5H,9bH-benzo[e]indole-3-carbonyl]-1-methylpiperidine]",113 nM
4,"CS(=O)(=O)N1CCC(C(=O)N2CC[C@@]3(S(=O)(=O)c4ccc(F)cc4)c4ccc(OCc5cc(F)ccc5Cl)cc4CC[C@@H]23)CC1 [Example 177, 4-[(3aR,9bR)-7-[(2-chloro-5-fluorophenyl)methoxy]-9b-(4-fluorobenzenesulfonyl)-1H,2H,3H,3aH,4H,5H,9bH-benzo[e]indole-3-carbonyl]-1-methanesulfonylpiperidine]",18 nM
5,"NS(=O)(=O)CC(=O)N1CC[C@@]2(S(=O)(=O)c3ccc(F)cc3)c3ccc(OCc4c(F)cccc4Cl)cc3CC[C@@H]12 [Example 154, 2-[(3aR,9bR)-7-[(2-chloro-6-fluorophenyl)methoxy]-9b-(4-fluorobenzenesulfonyl)-1H,2H,3H,3aH,4H,5H,9bH-benzo[e]indol-3-yl]-2-1 oxoethane-1-sulfonamide]",58 nM
6,"O=C(O)[C@H]1CC[C@H](C(=O)N2CC[C@@]3(S(=O)(=O)c4ccc(F)cc4)c4ccc(OCc5cc(Cl)ccc5Cl)cc4CC[C@@H]23)CC1 [Example 205, (1r,4r)-4-[(3aR,9bR)-7-[(2,5-dichlorophenyl)methoxy] -9b-(4-fluorobenzenesulfonyl)-1H,2H,3H,3aH,4H,5H,9bH-benzo[e]indole-3-carbonyl]cyclohexane-1-carboxylic acid]",9.5 nM
7,"O=C(C1CCS(=O)(=O)CC1)N1CC[C@@]2(S(=O)(=O)c3ccc(F)cc3)c3ccc(Cc4ccc(F)cc4)cc3CC[C@@H]12 [Example 41, 4-[(3aR,9bR)-9b-(4-fluorobenzenesulfonyl)-7-[(4-fluorophenyl)methyl]-1H,2H,3H,3aH,4H,5H,9bH-benzo[e]indole-3-carbonyl]-1λ^6-thiane-1,1-dione]",1.2 nM
8,"O=C(O)[C@H]1CC[C@H](C(=O)N2CC[C@@]3(S(=O)(=O)c4ccc(F)cc4)c4ccc(Cc5ccc(F)cc5)cc4CC[C@@H]23)CC1 [Example 40, (1r,4r)-4-[(3aR,9bR)-9b-(4-fluorobenzenesulfonyl)-7-[(4-fluorophenyl)methyl]-1H,2H,3H,3aH,4H,5H,9bH-benzo[e]indole-3-carbonyl]cyclohexane-1-carboxylic acid]",5.2 nM
9,"NC(=O)CN1CC[C@@]2(S(=O)(=O)c3ccccc3)c3ccc(OCc4c(Cl)cccc4Cl)cc3CC[C@@H]12 [Example 70, 2-[(3aR,9bR)-9b-(benzenesulfonyl)-7-[(2,6-dichlorophenyl)methoxy]-1H,2H,3H,3aH,4H,5H,9bH-benzo[e]indol-3-yl]acetamide]",153 nM
10,"NS(=O)(=O)CC(=O)N1CC[C@@]2(S(=O)(=O)c3ccc(F)cc3)c3ccc(OCc4cc(Cl)ccc4Cl)cc3CC[C@@H]12 [Example 209, 2-[(3aR,9bR)-7-[(2,5-dichlorophenyl)methoxy]-9b-(4-fluorobenzenesulfonyl)-1H,2H,3H,3aH,4H,5H,9bH-benzo[e]indol-3-yl]-2-oxoethane-1-sulfonamide]",124 nM
11,"O=C(C1CCS(=O)(=O)CC1)N1CC[C@@]2(S(=O)(=O)c3ccc(F)cc3)c3ccc(Cc4c(F)cccc4Cl)cc3CC[C@@H]12 [Example 32, 4-[(3aR,9bR)-7-[(2-chloro-6-fluorophenyl)methyl]-9b-(4-fluorobenzenesulfonyl)-1H,2H,3H,3aH,4H,5H,9bH-benzo[e]indole-3-carbonyl]-1λ^6-thiane-1,1-dione]",1.8 nM
12,"CS(=O)(=O)N1CCC(C(=O)N2CC[C@@]3(S(=O)(=O)c4ccc(F)cc4)c4ccc(OCc5c(Cl)cccc5Cl)cc4CC[C@@H]23)CC1 [Example 190, 4-[(3aR,9bR)-7-[(2,6-dichlorophenyl)methoxy]-9b-(4-fluorobenzenesulfonyl)-1H,2H,3H,3aH,4H,5H,9bH-benzo[e]indole-3-carbonyl]-1-methanesulfonylpiperidine]",8.7 nM
13,"O=C(O)[C@H]1CC[C@H](C(=O)N2CC[C@@]3(S(=O)(=O)c4ccc(F)cc4)c4ccc(OCc5cc(F)c(F)cc5Cl)cc4CC[C@@H]23)CC1 [Example 151, (1r,4r)-4-[(3aR,9bR)-7-[(2-chloro-4,5-difluorophenyl)methoxy]-9b-(4-fluorobenzenesulfonyl)-1H,2H,3H,3aH,4H,5H,9bH-benzo[e]indole-3-carbonyl]cyclohexane-1-carboxylic acid]",16 nM
14,"O=C(C1CCS(=O)(=O)CC1)N1CC[C@@]2(S(=O)(=O)c3ccccc3)c3ccc(OCc4ccc(F)cc4Cl)cc3CC[C@@H]12 [Example 134, 4-[(3aR,9bR)-9b-(benzenesulfonyl)-7-[(2-chloro-4-fluorophenyl)methoxy]-1H,2H,3H,3aH,4H,5H,9bH-benzo[e]indole-3-carbonyl]-1λ^6-thiane-1,1-dione]",22 nM
15,"NC(=O)[C@H]1CC[C@H](C(=O)N2CC[C@@]3(S(=O)(=O)c4ccccc4)c4ccc(OCc5c(Cl)cccc5Cl)cc4CC[C@@H]23)CC1 [Example 106, (1r,4r)-4-[(3aR,9bR)-9b-(benzenesulfonyl)-7-[(2,6-dichlorophenyl)methoxy]-1H,2H,3H,3aH,4H,5H,9bH-benzo[e]indole-3-carbonyl]cyclohexane-1-carboxamide]",2.8 nM

# Further compounds by falling EC50, results first:
row,EC50,SMILES
1,921 nM,"O=C(CN1CCCCS1(=O)=O)N1CC[C@@]2(S(=O)(=O)c3ccccc3)c3ccc(OCc4c(Cl)cccc4Cl)cc3CC[C@@H]12 [Example 64, 2-{2-[(3aR,9bR)-9b-(benzenesulfonyl)-7-[(2,6-dichlorophenyl)methoxy]-1H,2H,3H,3aH,4H,5H,9bH-benzo[e]indol-3-yl]-2-oxoethyl}-1λ^6,2-thiazinane-1,1-dione]"
2,614 nM,"CS(=O)(=O)NCC(=O)N1CC[C@@]2(S(=O)(=O)c3ccccc3)c3ccc(OCc4c(F)cccc4Cl)cc3CC[C@@H]12 [Example 145, N-{2-[(3aR,9bR)-9b-(benzenesulfonyl)-7-[(2-chloro-6-fluorophenyl)methoxy]-1H,2H,3H,3aH,4H,5H,9bH-benzo[e]indol-3-yl]-2-oxoethyl} methanesulfonamide]"
3,24 nM,"O=C(C1CCS(=O)(=O)CC1)N1CC[C@@]2(S(=O)(=O)c3ccccc3)c3ccc(OCC4CCCCC4)cc3CC[C@@H]12 [Example 125, 4-[(3aR,9bR)-9b-(benzenesulfonyl)-7-(cyclohexylmethoxy)-1H,2H,3H,3aH,4H,5H,9bH-benzo[e]indole-3-carbonyl]-1λ^6-thiane-1,1-dione]"
4,19 nM,"CN1CC(C(=O)N2CC[C@@]3(S(=O)(=O)c4ccccc4)c4ccc(OCc5c(Cl)cccc5Cl)cc4CC[C@@H]23)CC1=O (stereo partly drawn) [Example 77, 4-[(3aR,9bR)-9b-(benzenesulfonyl)-7-[(2,6-dichlorophenyl)methoxy]-1H,2H,3H,3aH,4H,5H,9bH-benzo[e]indole-3-carbonyl]-1-methylpyrrolidin-2-one]"
5,15 nM,"NC(=O)N1CCC(C(=O)N2CC[C@@]3(S(=O)(=O)c4ccccc4)c4ccc(OCc5c(Cl)cccc5Cl)cc4CC[C@@H]23)CC1 [Example 62, 4-[(3aR,9bR)-9b-(benzenesulfonyl)-7-[(2,6-dichlorophenyl)methoxy]-1H,2H,3H,3aH,4H,5H,9bH-benzo[e]indole-3-carbonyl]piperidine-1-carboxamide]"
6,11 nM,"N#CCCN1C(=O)CC[C@H]1C(=O)N1CC[C@@]2(S(=O)(=O)c3ccc(F)cc3)c3ccc(OCc4c(Cl)cccc4Cl)cc3CC[C@@H]12 [Example 156, 3-[(2S)-2-[(3aR,9bR)-7-[(2,6-dichlorophenyl)methoxy]-9b-(4-fluorobenzenesulfonyl)-1H,2H,3H,3aH,4H,5H,9bH-benzo[e]indole-3-carbonyl]-5-oxopyrrolidin-1-yl]propanenitrile]"
7,4.3 nM,"N#CCCN1C(=O)CC[C@H]1C(=O)N1CC[C@@]2(S(=O)(=O)c3ccc(F)cc3)c3ccc(OCc4c(F)cccc4C(F)(F)F)cc3CC[C@@H]12 [Example 155, 3-[(2S)-2-[(3aR,9bR)-7-{[2-fluoro-6-(trifluoromethyl)phenyl]methoxy}-9b-(4-fluorobenzenesulfonyl)-1H,2H,3H,3aH,4H,5H,9bH-benzo[e]indole-3-carbonyl]-5-oxopyrrolidin-1-yl]propanenitrile]"
8,1.4 nM,"O=C(O)[C@H]1CC[C@H](C(=O)N2CC[C@@]3(S(=O)(=O)c4ccc(F)cc4)c4ccc(Sc5c(Cl)cccc5Cl)cc4CC[C@@H]23)CC1 [Example 119, (1r,4r)-4-[(3aR,9bR)-7-[(2,6-dichlorophenyl)sulfanyl]-9b-(4-fluorobenzenesulfonyl)-1H,2H,3H,3aH,4H,5H,9bH-benzo[e]indole-3-carbonyl]cyclohexane-1-carboxylic acid]"
